In US20110269825A1, “Modified Thromboxane A2 Receptor Promoter Sequence” (priority 2008, published 2011):

Columns and labels:
Type in all cases: cell-based, human
WT1 = test: Immunoblot analysis of WT1 expression in HEL cells; conditions: PMA 100 nM over 48 h
Protocol: (§1) The expression of WT1, Sp1, Egr1, NF-E2, GATA-1 and Ets-1 proteins in HEL cells was confirmed by western blot analysis. Briefly, whole cell protein was resolved by SDS-PAGE (10% acrylamide gels) and transferred to polyvinylidene difluoride (PVDF) membrane according to standard methodology. Membranes were screened using anti-WT1, anti-NF-E2, anti-Sp1, anti-Egr1, anti-GATA-1 or anti-Ets-1 sera in 5% non fat dried milk in 1×TBS (0.01 M Tris/HCl, 0.1 M NaCl) for 2 h at room temperature followed by washing and screening using goat anti-rabbit horseradish peroxidase (sc-2204) followed by chemiluminescence detection, as described by the supplier (Roche Applied Science). For PMA studies, HEL cells were pre-incubated for the indicated amount of time with 100 nM PMA, with 10 μM PD98059, with 100 nM PMA plus 10 μM PD98059 or, as a control, with vehicle [0.1% (v/v) DMSO]. Whole cell protein (60 μg per lane) was resolved by SDS-PAGE (10% acrylamide gels) and transferred to polyvinylidene difluoride (PVDF) membrane according to standard methodology. […] Cells were harvested 48 hr post-transfection and aliquots ([…]) were analysed by SDS-PAGE/western blot analysis. As a positive control for hTF expression, […] of a commercial control Tissue-Factor Biomass was also analysed. […]

[1] = tested on: −8460 to −8006 region of Prm1; test: ChIP analysis of WT1, Egr1 and Sp1 binding to Prm1 in PMA-treated HEL cells; conditions: PMA 100 nM for 5, 8 or 16 h
Protocol: Chromatin immunoprecipitation (ChIP) assays were performed essentially as described (Koch et al., 2007). Specifically, HEL cells (1×10^8) were pelleted, washed in ice-cold PBS and resuspended in serum-free RPMI 1640. Formaldehyde-cross linked chromatin was sonicated, as described (Koch et al., 2007), to generate fragments 500 bp to 1000 bp in length. Prior to immunoprecipitation (IP), chromatin was incubated with 60 μg normal rabbit IgG overnight at 4° C. on a rotisserie, after which 250 μl of salmon sperm DNA/protein A agarose beads (Millipore) were added and chromatin was precleared for 3 h at 4° C. with rotation. Thereafter, anti-WT1, anti-NF-E2, anti-Sp1, anti-Egr1, anti-GATA-1, anti-Ets-1 ([…]), normal rabbit IgG (10 μg), or a “no antibody” control were used for immunoprecipitation. Following elution, cross-links were reversed by incubation at 65° C. overnight followed by protease digestion with proteinase K (Sigma; 9 μl of 10 mg/ml) at 45° C. for 7 h. After precipitation, samples were resuspended in 50 μl dH2O. PCR analysis was carried out using 2-3 μl of ChIP sample as template or, as a positive control, with an equivalent volume of a 1:20 dilution of the input chromatin DNA. The identities of the primers used for the ChIP PCR reactions, as well as their sequences and corresponding nucleotides within Prm1 are listed below. […]

Sp1 = test: Immunoblot analysis of Sp1 expression in HEL cells; conditions: PMA 100 nM over 48 h
Protocol: as §1

For `CCCCCCCCCCCCCC(=O)O[C@@H]1[C@@H](C)[C@@]2(O)[C@@H](C=C(CO)C[C@]3(O)C(=O)C(C)=C[C@@H]23)[C@@H]2C(C)(C)[C@]12OC(C)=O` [PMA, phorbol 12-myristate 13-acetate], the WT1 protein expression (WT1) was “did not substantially alter the expression of the WT1 doublet”, the “Binding of WT1, Egr1 and Sp1 to Prm1 chromatin” value [1] was “substantial changes in the pattern of binding of these factors to distal upstream GC-enriched elements” and the Sp1 protein expression (Sp1) was “did not result in appreciable changes in the expression of Sp1”.
